Molecular target: recombinant human His-ATG7 enzyme (Homo sapiens (Human), UniProt O95352)
Test: ATG7 Enzyme Assay (HTRF/FRET, ATG3-GST and Flag-Gabarap)
Type: biochemical
Settings: for inhibition at 0.111 µM: Concentration 0.111 μM, read-out: Percent Inhibition
How it was run: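 0.15 nM His-ATG7 was reacted with 5 nM ATG3-GST, 5 nM Flag-Gabarap and 10 μM ATP in HEPES pH 7.5 containing MgCl2, GSH and TCEP for 105 min at 24° C, then stopped with EDTA/KF. Eu-anti-Flag and anti-GST-APC HTRF was read after 2 h. Results are given as single-concentration % inhibition or IC50.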

recombinant human His-ATG7 enzyme, sequence (O95352 whole entry): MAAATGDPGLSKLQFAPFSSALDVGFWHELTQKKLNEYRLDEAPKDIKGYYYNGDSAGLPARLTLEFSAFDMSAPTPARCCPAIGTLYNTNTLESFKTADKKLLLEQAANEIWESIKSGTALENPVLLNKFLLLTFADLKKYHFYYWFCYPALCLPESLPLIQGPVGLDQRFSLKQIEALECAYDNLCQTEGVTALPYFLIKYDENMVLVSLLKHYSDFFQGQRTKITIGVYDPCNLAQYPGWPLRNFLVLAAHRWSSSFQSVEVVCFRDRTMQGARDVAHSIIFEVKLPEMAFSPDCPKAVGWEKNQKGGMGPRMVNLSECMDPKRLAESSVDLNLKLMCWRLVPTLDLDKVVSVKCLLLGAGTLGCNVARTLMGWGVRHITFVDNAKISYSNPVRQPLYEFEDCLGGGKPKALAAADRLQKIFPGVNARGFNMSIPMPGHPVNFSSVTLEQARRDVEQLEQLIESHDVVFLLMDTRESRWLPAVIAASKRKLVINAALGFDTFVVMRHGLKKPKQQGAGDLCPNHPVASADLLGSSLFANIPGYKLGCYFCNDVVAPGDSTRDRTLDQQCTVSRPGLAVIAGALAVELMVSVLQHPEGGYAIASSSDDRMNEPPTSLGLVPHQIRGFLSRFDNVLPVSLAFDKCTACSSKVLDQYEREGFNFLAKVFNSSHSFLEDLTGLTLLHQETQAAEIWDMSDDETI

Row | Structure (SMILES) | IC50 [nM] | inhibition at 0.111 µM [%]
1 | CSc1nn([C@H]2C[C@H](O)[C@H](COS(N)(=O)=O)O2)c2ncnc(N)c12 [Compound I-219, {(2S,3S,5R)-5-[4-amino-3-(methylsulfanyl)-1H-pyrazolo[3,4-d]pyrimidin-1-yl]-3-hydroxytetrahydrofuran-2-yl}methyl Sulfamate] | 100 to 500 | 48
2 | CC(C)Sc1nn([C@H]2C[C@H](O)[C@H](COS(N)(=O)=O)O2)c2ncnc(N)c12 [Compound I-220, {(2S,3S,5R)-5-[4-amino-3-(isopropylsulfanyl)-1H-pyrazolo[3,4-d]pyrimidin-1-yl]-3-hydroxytetrahydrofuran-2-yl}methyl sulfamate] | 50 to 100 | 65
3 | Nc1ncnc2c1c(SCc1ccccc1)nn2[C@H]1C[C@H](O)[C@H](COS(N)(=O)=O)O1 [Compound I-221, {(2S,3S,5R)-5-[4-amino-3-(benzylsulfanyl)-1H-pyrazolo[3,4-d]pyrimidin-1-yl]-3-hydroxytetrahydrofuran-2-yl}methyl Sulfamate] | 100 to 500 | 26
4 | Nc1ncnc2c1c(Sc1ccc(Cl)cn1)nn2[C@H]1C[C@H](O)[C@H](COS(N)(=O)=O)O1 [Compound I-222, [(2S,3S,5R)-5-{4-amino-3-[(5-chloropyridin-2-yl)sulfanyl]-1H-pyrazolo[3,4-d]pyrimidin-1-yl}-3-hydroxytetrahydrofuran-2-yl]methyl sulfamate] | 50 to 100 | 59

The remaining lines, values ahead:

Row | IC50 [nM] | inhibition at 0.111 µM [%] | Structure (SMILES)
5 | 100 to 500 | 35 | Nc1ncnc2c1c(Sc1ccc(F)cc1)nn2[C@H]1C[C@H](O)[C@H](COS(N)(=O)=O)O1 [Compound I-223, [(2S,3S,5R)-5-{4-amino-3-[(4-fluorophenyl)sulfanyl]-1H-pyrazolo[3,4-d]pyrimidin-1-yl}-3-hydroxytetrahydrofuran-2-yl]methyl sulfamate]
6 | 100 to 500 | 39 | Nc1ncnc2c1c(Sc1cccc(Cl)c1)nn2[C@H]1C[C@H](O)[C@H](COS(N)(=O)=O)O1 [Compound I-224, [(2S,3S,5R)-5-{4-amino-3-[(3-chlorophenyl)sulfanyl]-1H-pyrazolo[3,4-d]pyrimidin-1-yl}-3-hydroxytetrahydrofuran-2-yl]methyl sulfamate]
7 | > 500 | 10 | COc1nn([C@H]2C[C@H](O)[C@H](COS(N)(=O)=O)O2)c2ncnc(N)c12 [Compound I-225, [(2S,3S,5R)-5-(4-amino-3-methoxy-1H-pyrazolo[3,4-d]pyrimidin-1-yl)-3-hydroxytetrahydrofuran-2-yl]methyl sulfamate]
8 | 100 to 500 | 48 | Nc1ncnc2c1c(SCC(F)F)nn2[C@H]1C[C@H](O)[C@H](COS(N)(=O)=O)O1 [Compound I-227, [(2S,3S,5R)-5-{4-amino-3-[(2,2-difluoroethyl)sulfanyl]-1H-pyrazolo[3,4-d]pyrimidin-1-yl}-3-hydroxytetrahydrofuran-2-yl]methyl Sulfamate]

Reference: patent publication US10865208B2, “ATG7 inhibitors and the uses thereof” (Millennium Pharmaceuticals, Inc., priority 2016, dated 2020)
